Values quoted from earlier work in patent US20060211721A1, “Nutraceutical formulation of a cognitive enhancement system” (priority 2005, published 2006).

Details: background statement

C/C=C1\[C@H]2C=C(C)C[C@]1(N)c1ccc(=O)[nH]c1C2 [huperzine, Huperzine A]
oral bioavailability: high oral bioavailability | penetration through the blood brain barrier: good penetration through the blood brain barrier
